Measured values taken from patent US7888464B2, “Hepatitis C virus inhibitors” (Bristol-Myers Squibb Company, priority 2006, dated 2011).
pEC50, pIC50: −log10 of the molar value. Like-named read-outs stand apart in the source and are kept apart here.

Experiments:
[1] = molecular target: T1, HCV NS3/4A protease complex, BMS strain (genotype 1a) (UniProt P27958, species not given/STRAIN_BMS); assay: FRET peptide assay to monitor HCV NS3/4A proteolytic activity (BMS strain); type: biochemical; conditions: NS3/4A BMS strain, read-out: HCV Protease (IC50)
T1 construct: "DNA encoding the recombinant HCV NS3/4A protease complex (amino acids 1027 to 1711) for these strains" (said of H77 and J4L6S, not expressly of BMS); given for the H77/J4L6S constructs only
T1 sequence (P27958 1027-1657, stated change not applied, one chain of several): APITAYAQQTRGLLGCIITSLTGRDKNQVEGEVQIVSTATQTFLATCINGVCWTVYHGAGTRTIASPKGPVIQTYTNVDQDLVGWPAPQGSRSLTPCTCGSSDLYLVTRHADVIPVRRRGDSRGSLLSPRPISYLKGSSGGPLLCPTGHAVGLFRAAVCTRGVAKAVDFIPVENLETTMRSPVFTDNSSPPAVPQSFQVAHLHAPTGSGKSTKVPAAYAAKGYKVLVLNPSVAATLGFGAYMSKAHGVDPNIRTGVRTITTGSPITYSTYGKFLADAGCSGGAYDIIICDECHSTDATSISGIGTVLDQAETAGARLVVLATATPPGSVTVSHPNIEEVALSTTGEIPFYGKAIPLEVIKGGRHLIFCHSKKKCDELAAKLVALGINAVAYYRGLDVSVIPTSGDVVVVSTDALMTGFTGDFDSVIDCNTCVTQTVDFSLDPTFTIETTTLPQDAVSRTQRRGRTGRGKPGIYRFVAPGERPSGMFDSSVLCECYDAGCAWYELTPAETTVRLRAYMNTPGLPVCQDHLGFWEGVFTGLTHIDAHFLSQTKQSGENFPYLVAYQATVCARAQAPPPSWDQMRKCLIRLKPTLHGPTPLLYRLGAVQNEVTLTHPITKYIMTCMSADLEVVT
Text: HCV NS3 protease complexes, derived from the BMS strain, H77 strain or J4L6S strain, were generated, as described below. These purified recombinant proteins were generated for use in a homogeneous assay (see below) to provide an indication of how effective compounds of the present disclosure would be in inhibiting HCV NS3 proteolytic activity.
Serum from an HCV-infected patient was obtained from Dr. T. Wright, San Francisco Hospital. An engineered full-length cDNA (compliment deoxyribonucleic acid) template of the HCV genome (BMS strain) was constructed from DNA fragments obtained by reverse transcription-PCR(RT-PCR) of serum RNA (ribonucleic acid) and using primers selected on the basis of homology between other genotype la strains. From the determination of the entire genome sequence, a genotype la was assigned to the HCV isolate according to the classification of Simmonds et al. (See P Simmonds, K A Rose, S Graham, S W Chan, F McOmish, B C Dow, E A Follett, P L Yap and H Marsden, J. Clin. Microbiol., 31(6), 1493-1503 (1993)). […] The infectious clones, H77 (1a genotype) and J4L6S (1b genotype) were obtained from R. Purcell (NIH) and the sequences are published in Genbank (AAB67036, see Yanagi, M., Purcell, R. H., Emerson, S. U. and Bukh, J. Proc. Natl. Acad. Sci. U.S.A. 94(16), 8738-8743 (1997); AF054247, see Yanagi, M., St Claire, M., Shapiro, M., Emerson, S. U., Purcell, R. H. and Bukh, J, Virology 244 (1), 161-172. (1998)).
The H77 and J4L6S strains were used for production of recombinant NS3/4A protease complexes. DNA encoding the recombinant HCV NS3/4A protease complex (amino acids 1027 to 1711) for these strains were manipulated as described by P. Gallinari et al. (see Gallinari P, Paolini C, Brennan D, Nardi C, Steinkuhler C, De Francesco R. Biochemistry. 38(17):5620-32, (1999)). Briefly, a three-lysine solubilizing tail was added at the 3′-end of the NS4A coding region. The cysteine in the P1 position of the NS4A-NS4B cleavage site (amino acid 1711) was changed to a glycine to avoid the proteolytic cleavage of the lysine tag. Furthermore, a cysteine to serine mutation was introduced by PCR at amino acid position 1454 to prevent the autolytic cleavage in the NS3 helicase domain. The variant DNA fragment was cloned in the pET21b bacterial expression vector (Novagen) and the NS3/4A complex was expressed in Escherichia. coli strain BL21 (DE3) (Invitrogen) following the protocol described by P. Gallinari et al. (see Gallinari P, Brennan D, Nardi C, Brunetti M, Tomei L, Steinkuhler C, De Francesco R., J. Virol. 72(8):6758-69 (1998)) with modifications. Briefly, the NS3/4A protease complex expression was induced with 0.5 millimolar (mM) Isopropyl β-D-1-thiogalactopyranoside (IPTG) for 22 hours (h) at 20° C. A typical fermentation (1 Liter (L)) yielded approximately 10 grams (g) of wet cell paste. The cells were resuspended in lysis buffer (10 mL/g) consisting of 25 mM N-(2-Hydroxyethyl)piperazine-N′-(2-Ethane Sulfonic acid) (HEPES), pH 7.5, 20% glycerol, 500 mM Sodium Chloride (NaCl), 0.5% Triton X-100, 1 microgram/milliliter (“μg/mL”) lysozyme, 5 mM Magnesium Chloride (MgCl2), 1 μg/ml DnaseI, 5 mM β-Mercaptoethanol (βME), Protease inhibitor-Ethylenediamine Tetraacetic acid (EDTA) free (Roche), homogenized and incubated for 20 minutes (min) at 4° C. The homogenate was sonicated and clarified by ultra-centrifugation at 235000 g for 1 hour (h) at 4° C. Imidazole was added to the supernatant to a final concentration of 15 mM and the pH adjusted to 8.0. The crude protein extract was loaded on a Nickel-Nitrilotriacetic acid (Ni-NTA) column pre-equilibrated with buffer B (25 mM HEPES, pH 8.0, 20% glycerol, 500 mM NaCl, 0.5% Triton X-100, 15 mM imidazole, 5 mM βME). The sample was loaded at a flow rate of 1 mL/min. The column was washed with 15 column volumes of buffer C (same as buffer B except with 0.2% Triton X-100). The protein was eluted with 5 column volumes of buffer D (same as buffer C except with 200 mM Imidazole). […]

[2] = tested on: HCV replicon (strain 1b) in HUH-7 cells; assay: HCV replicon FRET assay; type: cell-based; conditions: Hepatitis C virus
Text: An HCV replicon whole cell system was established as described by Lohmann V, Korner F, Koch J, Herian U, Theilmann L, Bartenschlager R., Science 285(5424): 110-3 (1999). This system enabled us to evaluate the effects of our HCV Protease compounds on HCV RNA replication. Briefly, using the HCV strain 1b sequence described in the Lohmann paper (Assession number: AJ238799), an HCV cDNA was synthesized by Operon Technologies, Inc. (Alameda, Calif.), and the full-length replicon was then assembled in plasmid pGem9zf(+) (Promega, Madison, Wis.) using standard molecular biology techniques. The replicon consists of (i) the HCV 5′ UTR fused to the first 12 amino acids of the capsid protein, (ii) the neomycin phosphotransferase gene (neo), (iii) the IRES from encephalomyocarditis virus (EMCV), and (iv) HCV NS3 to NS5B genes and the HCV 3′ UTR. Plasmid DNAs were linearized with ScaI and RNA transcripts were synthesized in vitro using the T7 MegaScript transcription kit (Ambion, Austin, Tex.) according to manufacturer's directions. In vitro transcripts of the cDNA were transfected into the human hepatoma cell line, HUH-7. […] Resulting cell lines were characterized for positive and negative strand RNA production and protein production over time.
The HCV replicon FRET assay was developed to monitor the inhibitory effects of compounds described in the disclosure on HCV viral replication. HUH-7 cells, constitutively expressing the HCV replicon, were grown in Dulbecco's Modified Eagle Media (DMEM) (Gibco-BRL) containing 10% Fetal calf serum (FCS) (Sigma) and 1 mg/ml G418 (Gibco-BRL). Cells were seeded the night before (1.5×10^4 cells/well) in 96-well tissue-culture sterile plates. Compound and no compound controls were prepared in DMEM containing 4% FCS, 1:100 Penicillin/Streptomysin (Gibco-BRL), 1:100 L-glutamine and 5% DMSO in the dilution plate (0.5% DMSO final concentration in the assay). Compound/DMSO mixes were added to the cells and incubated for 4 days at 37° C. After 4 days, cells were first assessed for cytotoxicity using alamar Blue (Trek Diagnotstic Systems) for a CC50 reading. The toxicity of compound (CC50) was determined by adding 1/10th volume of alamar Blue to the media incubating the cells. After 4 h, the fluorescence signal from each well was read, with an excitation wavelength at 530 nm and an emission wavelength of 580 nm, using the Cytofluor Series 4000 (Perspective Biosystems). Plates were then rinsed thoroughly with Phosphate-Buffered Saline (PBS) (3 times 150 μl). The cells were lysed with 25 μl of a lysis assay reagent containing an HCV protease substrate (5× cell Luciferase cell culture lysis reagent (Promega #E153A) diluted to 1× with distilled water, NaCl added to 150 mM final, the FRET peptide substrate (as described for the enzyme assay above) diluted to 10 μM final from a 2 mM stock in 100% DMSO. The plate was then placed into the Cytofluor 4000 instrument which had been set to 340 nm excitation/490 nm emission, automatic mode for 21 cycles and the plate read in a kinetic mode. EC50 determinations were carried out as described for the IC50 determinations.

[3] = activity range symbols of Table 2
[4] = Huh-7, read-out: HCV Pro Replicon (EC50)

Row | SMILES | pIC50 [1, 3] | pEC50 [2, 4] | pIC50 ([1]; numeric cells of Table 2) | pEC50 ([2]; Huh-7, HCV replicon, numeric cells of Table 2, read-out: HCV Pro Replicon (EC50))
1 | C=C[C@@H]1C[C@]1(NC(=O)[C@@H]1C[C@@](OC)(c2ccc(-c3ccccc3)cc2)CN1C(=O)[C@@H](NC(=O)OC(C)(C)C)C(C)CC)C(=O)NS(=O)(=O)C1CC1 (stereo partly drawn) [Cmpd 202, {(S)-1-[(2S,4R)-4-Biphenyl-4-yl-2-((S)-(1R,2S)-1-cyclopropanesulfonylaminocarbonyl-2-vinyl-cyclopropylcarbamoyl)-4-methoxy-pyrrolidine-1-carbonyl]-2-methyl-butyl}-carbamic acid tert-butyl ester] | 7.30 to 9.00 | 6.30 to 7.30 |  | 
2 | C=C[C@@H]1C[C@]1(NC(=O)[C@@H]1C[C@@](OC)(c2ccc(-c3ccccc3)cc2)CN1C(=O)[C@@H](Nc1cccc(OC)c1)C(C)(C)C)C(=O)NS(=O)(=O)C1CC1 [Cmpd 207, (2S,4R)-4-Biphenyl-4-yl-4-methoxy-1-[(S)-2-(3-methoxy-phenylamino)-3,3-dimethyl-butyryl]-pyrrolidine-2-carboxylic acid ((1R,2S)-1-cyclopropanesulfonylaminocarbonyl-2-vinyl-cyclopropyl)-amide] | 7.30 to 9.00 | 7.30 to 9.00 |  | 
3 | C=C[C@@H]1C[C@]1(NC(=O)[C@@H]1C[C@@](OC)(c2ccc(-c3ccccc3)cc2)CN1C(=O)[C@@H](NC(=O)OC(C)(C)C)C(C)C)C(=O)NS(=O)(=O)C1CC1 [Cmpd 201, {(S)-1-[(2S,4R)-4-Biphenyl-4-yl-2-((S)-(1R,2S)-1-cyclopropanesulfonylaminocarbonyl-2-vinyl-cyclopropylcarbamoyl)-4-methoxy-pyrrolidine-1-carbonyl]-2-methyl-propyl}-carbamic acid tert-butyl ester] | 7.30 to 9.00 | 6.30 to 7.30 |  | 
4 | C=C[C@@H]1C[C@]1(NC(=O)[C@@H]1C[C@@](OC)(c2ccc(-c3ccccc3)cc2)CN1C(=O)[C@@H](Nc1ccc(F)c(F)c1)C(C)(C)C)C(=O)NS(=O)(=O)C1CC1 [Cmpd 209, (2S,4R)-4-Biphenyl-4-yl-1-[(S)-2-(3,4-difluoro-phenylamino)-3,3-dimethyl-butyryl]-4-methoxy-pyrrolidine-2-carboxylic acid ((1R,2 S)-1-cyclopropanesulfonylaminocarbonyl-2-vinyl-cyclopropyl)-amide] | 7.30 to 9.00 | 7.30 to 9.00 |  | 
5 | C=C[C@@H]1C[C@]1(NC(=O)[C@@H]1C[C@@](OC)(c2ccc(-c3ccccc3)cc2)CN1C(=O)[C@H](Nc1cccc(OC)c1)C(C)(C)C)C(=O)NS(=O)(=O)C1CC1 [Cmpd 208, (2S,4R)-4-Biphenyl-4-yl-4-methoxy-1-[(R)-2-(3-methoxy-phenylamino)-3,3-dimethyl-butyryl]-pyrrolidine-2-carboxylic acid ((1R,2S)-1-cyclopropanesulfonylaminocarbonyl-2-vinyl-cyclopropyl)-amide] |  |  | 6.50 | 5.89
6 | COC1(c2ccc(-c3ccccc3)cc2)CC(C(=O)NC2(C(=O)NS(=O)(=O)C3CC3)CC2C(F)F)N(C(=O)C(NC(=O)OC(C)(C)C)C(C)(C)C)C1 (stereo not shown) [Cmpd 109] | 7.30 to 9.00 | 6.30 to 7.30 |  | 
7 | CC[C@@H]1C[C@]1(NC(=O)[C@@H]1C[C@@](OC)(c2ccc(-c3ccccc3)cc2)CN1C(=O)[C@@H](NC(=O)OC(C)(C)C)C(C)(C)C)C(=O)NS(=O)(=O)C1CC1 [Cmpd 110] | 7.30 to 9.00 | 6.30 to 7.30 |  | 
8 | C=C[C@@H]1C[C@]1(NC(=O)[C@@H]1C[C@@](OC)(c2ccc(-c3ccccc3)cc2)CN1C(=O)[C@@H](NC(=O)NC12CC3CC(CC(C3)C1)C2)C(C)(C)C)C(=O)NS(=O)(=O)C1CC1 [Cmpd 205, (2S,4R)-1-[(S)-2-(3-Adamantan-1-yl-ureido)-3,3-dimethyl-butyryl]-4-biphenyl-4-yl-4-methoxy-pyrrolidine-2-carboxylic acid ((1R,2S)-1-cyclopropanesulfonylaminocarbonyl-2-vinyl-cyclopropyl)-amide] | 7.30 to 9.00 | 7.30 to 9.00 |  | 
9 | C=C[C@@H]1C[C@]1(NC(=O)[C@@H]1C[C@@](OC)(c2ccc(-c3ccccc3)cc2)CN1C(=O)[C@@H](NC(=O)OC12CC3CC(CC(C3)C1)C2)C(C)(C)C)C(=O)NS(=O)(=O)C1CC1 [Cmpd 204, {(S)-1-[(2S,4R)-4-Biphenyl-4-yl-2-((S)-(1R,2S)-1-cyclopropanesulfonylaminocarbonyl-2-vinyl-cyclopropylcarbamoyl)-4-methoxy-pyrrolidine-1-carbonyl]-2,2-dimethyl-propyl}-carbamic acid adamantan-1-yl ester] | 7.30 to 9.00 | 7.30 to 9.00 |  | 
10 | C=C[C@@H]1C[C@]1(NC(=O)[C@@H]1C[C@@](OC)(c2ccc(-c3ccccc3)cc2)CN1C(=O)[C@H](Cc1ccc(C(C)(C)C)cc1)NC(=O)OC(C)(C)C)C(=O)NS(=O)(=O)C1CC1 [Cmpd 211] |  |  | 5.80 | 
